Measured values as given in US7553969B1, “Substituted phenethylamine derivatives” (Chugai Seiyaku Kabushiki Kaisha, priority 1999, dated 2009).
Where a SMILES comes first, the peptide text is derived from it. [ ]: non-standard residue; d: D form. The star is where a group is joined. ξ: configuration not given here. NMeTyr(3-tBu) = CN[C@@H](Cc1ccc(O)c(C(C)(C)C)c1)C(=O)O; Tyr(3-tBu) = CC(C)(C)c1cc(C[C@H](N)C(=O)O)ccc1O; NMePhe(4-F) = CN[C@@H](Cc1ccc(F)cc1)C(=O)O; Tyr(3-F) = N[C@@H](Cc1ccc(O)c(F)c1)C(=O)O; Phe(3-F) = N[C@@H](Cc1cccc(F)c1)C(=O)O; Phe(4-F) = N[C@@H](Cc1ccc(F)cc1)C(=O)O; NMeGly(cPr) = CN[C@H](C(=O)O)C1CC1; NMeIle(3ξ) = CCC(C)[C@H](NC)C(=O)O; NMeL = CN[C@@H](CC(C)C)C(=O)O; NMeV = CN[C@H](C(=O)O)C(C)C; Morpholide = C1CN(*)CCO1; NHPr = CCCN*

What was measured:
[1] = test system: specimen of longitudinal muscle in the duodenum extracted from a rabbit (motilin-induced contraction); experiment: Action on the motilin-induced contraction of a specimen of longitudinal muscle in the duodenum extracted from a rabbit; conditions: organ bath, Krebs solution 28° C.; for Kb: Oryctolagus cuniculus, read-out: Contraction suppressing test, pA2 (converted)
Procedure: Action on the Contraction of a Specimen of Longitudinal Muscle in the Duodenum Extracted from a Rabbit
The action on the motilin-induced contraction of a specimen of longitudinal muscle in the duodenum extracted from a rabbit was investigated by the following method. A duodenum specimen (5×15 mm) extracted from a slaughtered rabbit was suspended in an organ bath (10 ml) such that the longitudinal muscle would run vertically; the bath was filled with a Krebs solution kept at 28° C. A mixed gas (95% O2 and 5% CO2) was continuously bubbled into the Krebs solution and the contraction of the duodenum specimen was recorded isotonically (with a 1-g load) via an isotonic transducer (ME-3407, ME Commercial, Tokyo, Japan). The degree of contraction was expressed in relative values, with the contraction by acetylcholine at a dose of 10^−4 M being taken as 100%. The activity of the compound was calculated as pA2 value indicating its effect on the dose-dependent muscle contraction by the motilin put into the organ bath.

motilin receptor = molecular target: T1, motilin receptor (Oryctolagus cuniculus, UniProt G1T803); experiment: Motilin receptor binding test (125I motilin, rabbit duodenum protein sample); conditions: 125I motilin 25 pM, concentration reducing specific binding by 50%
T1 construct: homogenized in 50 mM Tris buffer to prepare a protein sample; from tissue; host or cells: rabbit duodenum homogenate (mucous membrane separated)
Procedure: Motilin receptor binding test
A motilin receptor binding test was conducted in the following manner [Vantrappen et al., Regul. Peptides, 15, 143 (1986)]. The duodenum was extracted from a slaughtered rabbit, had the mucous membrane separated and homogenized in 50 mM Tris buffer to prepare a protein sample. The protein sample was incubated together with ^125I motilin 25 pM and thereafter the radioactivity bound to the protein was measured. Specific binding was defined as the difference between the radioactivity in the case of adding a great excess amount of motilin (10^−7 M) and that in the case of no adding. The activity of the compound was expressed by IC50 (in nM), as the concentration sufficient to reduce the specific binding by 50%.

T1 sequence (G1T803 1-400): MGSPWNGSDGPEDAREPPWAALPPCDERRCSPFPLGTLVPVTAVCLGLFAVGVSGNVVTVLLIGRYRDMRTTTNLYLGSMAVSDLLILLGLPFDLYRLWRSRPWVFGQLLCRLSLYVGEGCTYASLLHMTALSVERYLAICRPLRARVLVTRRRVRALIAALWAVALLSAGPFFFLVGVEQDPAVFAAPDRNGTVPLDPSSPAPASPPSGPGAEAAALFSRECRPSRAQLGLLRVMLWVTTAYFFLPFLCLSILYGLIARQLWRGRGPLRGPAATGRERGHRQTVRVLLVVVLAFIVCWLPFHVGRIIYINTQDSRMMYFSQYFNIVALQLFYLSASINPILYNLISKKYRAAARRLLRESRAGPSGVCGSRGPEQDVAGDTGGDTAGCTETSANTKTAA

Compound	IC50 (motilin receptor)	Kb [1]	Contraction suppressing test, pA2 [1]
CC(C)C(C(=O)N(C)C(Cc1ccc(O)c(C(C)(C)C)c1)C(=O)NCS(C)(=O)=O)N(C)C(=O)C(N)Cc1ccc(F)cc1 (stereo not drawn) [Example 64, Phe(4-F)-N-Me-Val-N-Me-Tyr(3-tBu)-NHCH2SO2CH3]	1 nM		9.0
CC(C)C[C@@H](C(=O)N(C)[C@@H](Cc1ccc(O)c(C(C)(C)C)c1)C(N)=O)N(C)C(=O)[C@@H](N)Cc1ccc(F)cc1 [Example 144, Phe(4-F)-N-Me-Leu-N-Me-Tyr(3-tBu)-NH2] (H-[Phe(4-F)]-[NMeL]-[NMeTyr(3-tBu)]-NH2)	2 nM	3.16 nM	
CC(C)[C@@H](C(=O)N(C)[C@@H](Cc1ccc(O)c(C(C)(C)C)c1)C(N)=O)N(C)C(=O)[C@@H](N)Cc1cccc(F)c1 [Example 4, Phe(3-F)-N-Me-Val-N-Me-Tyr(3-tBu)-NH2] (H-[Phe(3-F)]-[NMeV]-[NMeTyr(3-tBu)]-NH2)	1.6 nM	5.01 nM	
CC(C)[C@@H](C(=O)N[C@H](CO)Cc1ccc(O)c(C(C)(C)C)c1)N(C)C(=O)[C@@H](N)Cc1ccc(F)cc1 [Example 17, 2-(2-((2-amino-3-(4-fluorophenyl)propionyl)-N-methylamino)-3-methyl-butyrylamino)-3-(3-tBu-4-hydroxyphenyl)propanol]	0.7 nM	0.794 nM	
CN(C(=O)[C@@H](N)Cc1ccc(F)cc1)[C@H](C(=O)N(C)[C@@H](Cc1ccc(O)c(C(C)(C)C)c1)C(N)=O)C1CC1 [Example 165, Phe(4-F)-N-Me-Ala(β-c-Pr)-N-Me-Tyr(3-tBu)-NH2] (H-[Phe(4-F)]-[NMeGly(cPr)]-[NMeTyr(3-tBu)]-NH2)	2.8 nM	6.31 nM	
CC(C)[C@@H](C(=O)N(C)[C@@H](Cc1ccc(O)c(C(C)(C)C)c1)C(=O)N1CCN(S(C)(=O)=O)CC1)N(C)C(=O)[C@@H](N)Cc1ccc(F)cc1 [Example 134, (2S)-2-[(2S)-2-amino-3-(4-fluorophenyl)-N-methylpropanolyamino]-N-((1S)-1-{[3-(tert-butyl)-4-hydroxyphenyl]methyl}-2-[4-(methylsulfonyl)piperazinyl]-2-oxoethyl)-3-methyl-N-methylbutanamide]	1.5 nM	5.01 nM	
CNC(=O)[C@H](Cc1ccc(O)c(C(C)(C)C)c1)N(C)C(=O)[C@H](C(C)C)N(C)C(=O)[C@@H](N)Cc1ccc(F)cc1 [Example 36, Phe(4-F)-N-Me-Val-N-Me-Tyr(3-tBu)-NHMe] (H-[Phe(4-F)]-[NMeV]-[NMeTyr(3-tBu)]-NHMe)	2.3 nM	1.58 nM	
CCCNC(=O)[C@H](Cc1ccc(O)c(C(C)(C)C)c1)NC(=O)[C@H](C(C)C)N(C)C(=O)[C@@H](N)Cc1ccc(F)cc1 [Example 119, Phe(4-F)-N-Me-Val-Tyr(3-tBu)-NH-n-Pr] (H-[Phe(4-F)]-[NMeV]-[Tyr(3-tBu)]-NHPr)	0.4 nM	0.398 nM	
CC(C)[C@@H](C(=O)N(C)[C@@H](Cc1ccc(O)c(C(C)(C)C)c1)C(N)=O)N(C)C(=O)[C@@H](N)Cc1ccc(O)c(F)c1 [Example 27, Tyr(3-F)-N-Me-Val-N-Me-Tyr(3-tBu)-NH2] (H-[Tyr(3-F)]-[NMeV]-[NMeTyr(3-tBu)]-NH2)	1.2 nM	2.51 nM	
CC(C)[C@@H](C(=O)N[C@H](CC(N)=O)Cc1ccc(O)c(C(C)(C)C)c1)N(C)C(=O)[C@@H](N)Cc1ccc(F)cc1 [Example 15, 2-((2-amino-3-(4-fluorophenyl)propionyl)-N-methylamino)-3-methylbutyric acid 2-(3-t-butyl-4-hydroxyphenyl)-1-carbamidomethylethylamide]	0.82 nM	3.16 nM	
CC(C)[C@@H](C(=O)N[C@H](CNS(N)(=O)=O)Cc1ccc(O)c(C(C)(C)C)c1)N(C)C(=O)[C@@H](N)Cc1ccc(F)cc1 [Example 12, 2-(2-(2-amino-3-(4-fluorophenylpropanoyl-N-methylamino)-3-methyl)butyrylamino)-3-(3-tert-butyl-4-hydroxyphenyl)propylsulfamide]	0.52 nM	0.501 nM	
CCN[C@@H](Cc1ccc(F)cc1)C(=O)N(C)[C@H](C(=O)N[C@@H](Cc1ccc(O)c(C(C)(C)C)c1)C(N)=O)C(C)C [Example 30, N-Et-Phe(4-F)-N-Me-Val-Tyr(3-tBu)-NH2]	0.81 nM	0.794 nM	
CCC(C)[C@@H](C(=O)N(C)[C@@H](Cc1ccc(O)c(C(C)(C)C)c1)C(N)=O)N(C)C(=O)[C@@H](N)Cc1ccc(F)cc1 (stereo partly drawn) [Example 142, Phe(4-F)-N-Me-Ile-N-Me-Tyr(3-tBu)-NH2] (H-[Phe(4-F)]-[NMeIle(3ξ)]-[NMeTyr(3-tBu)]-NH2)	0.62 nM	2.51 nM	
CC(C)[C@@H](C(=O)N(C)[C@@H](Cc1ccc(O)c(C(C)(C)C)c1)C(=O)N1CCN(CC(=O)O)CC1)N(C)C(=O)[C@@H](N)Cc1ccc(F)cc1 [Example 136, 2-[4-((2S)-2-{(2S)-2-[(2S)-2-amino-3-(4-fluorophenyl)-N-methylpropanolyamino)-3,N-dimethylbutanoylamino}-3-[3-(tert-butyl)-4-hydroxyphenyl]propanoyl)piperazinyl]acetic acid]	6.8 nM	25.1 nM	
CC(C)[C@@H](C(=O)N(C)[C@@H](Cc1ccc(O)c(C(C)(C)C)c1)C(=O)N1CCOCC1)N(C)C(=O)[C@@H](N)Cc1ccc(F)cc1 [Example 133, (2S)-2-[(2S)-2-amino-3-(4-fluorophenyl)-N-methylpropanolyamino]-N-((1S)-1-{[3-(tert-butyl)-4-hydroxyphenyl]methyl}-2-morpholin-4-yl-2-oxoethyl)-3-methyl-N-methylbutanamide] (H-[Phe(4-F)]-[NMeV]-[NMeTyr(3-tBu)]-Morpholide)	1.1 nM	6.31 nM	

Second part, led by results:

IC50 (motilin receptor)	Compound	Kb [1]	Contraction suppressing test, pA2 [1]
1.7 nM	CCN(C(=O)[C@H](C(C)C)N(C)C(=O)[C@@H](N)Cc1ccc(F)cc1)[C@@H](Cc1ccc(O)c(C(C)(C)C)c1)C(=O)NCO [Example 127, Phe(4-F)-N-Me-Val-N-Et-Tyr(3-tBu)-NHCH2OH]	2 nM	
1.5 nM	CCN(C(=O)[C@H](C(C)C)N(C)C(=O)[C@H](Cc1ccc(F)cc1)NC)[C@@H](Cc1ccc(O)c(C(C)(C)C)c1)C(=O)NCO [Example 128, N-Me-Phe(4-F)-N-Me-Val-N-Et-Tyr(3-tBu)-NHCH2OH]	2 nM	
1.9 nM	CCN[C@@H](Cc1ccc(F)cc1)C(=O)N(C)[C@H](C(=O)N(C)[C@@H](Cc1ccc(O)c(C(C)(C)C)c1)C(=O)NCO)C(C)C [Example 126, N-Et-Phe(4-F)-N-Me-Val-N-Me-Tyr(3-tBu)-NHCH2OH]	0.631 nM	
1.2 nM	CCN(C(=O)[C@H](C(C)C)N(C)C(=O)[C@@H](N)Cc1ccc(F)cc1)[C@@H](Cc1ccc(O)c(C(C)(C)C)c1)C(=O)NC [Example 42, Phe(4-F)-N-Me-Val-N-Et-Tyr(3-tBu)-NHMe]	5.01 nM	
3.6 nM	CCN[C@@H](Cc1ccc(F)cc1)C(=O)N(C)[C@H](C(=O)N(CC)[C@@H](Cc1ccc(O)c(C(C)(C)C)c1)C(=O)NC)C(C)C [Example 44, N-Et-Phe(4-F)-N-Me-Val-N-Et-Tyr(3-tBu)-NHMe]	3.16 nM	
1 nM	CN[C@@H](Cc1ccc(F)cc1)C(=O)N(C)[C@H](C(=O)N(C)[C@@H](Cc1ccc(O)c(C(C)(C)C)c1)C(=O)NCO)C(C)C [Example 125, N-Me-Phe(4-F)-N-Me-Val-N-Me-Tyr(3-tBu)-NHCH2OH]	1 nM	
1.7 nM	CCN[C@@H](Cc1ccc(F)cc1)C(=O)N(C)[C@H](C(=O)N(C)[C@@H](Cc1ccc(O)c(C(C)(C)C)c1)C(N)=O)C(C)C [Example 35, N-Et-Phe(4-F)-N-Me-Val-N-Me-Tyr(3-tBu)-NH2]	1.58 nM	
0.32 nM	CCNC(=O)[C@H](Cc1ccc(O)c(C(C)(C)C)c1)N(C)C(=O)[C@H](C(C)C)N(C)C(=O)[C@@H](N)Cc1ccc(F)cc1 [Example 104, Phe(4-F)-N-Me-Val-N-Me-Tyr(3-tBu)-NHEt] (H-[Phe(4-F)]-[NMeV]-[NMeTyr(3-tBu)]-NHEt)	0.794 nM	
3.1 nM	CCN[C@@H](Cc1ccc(F)cc1)C(=O)N(C)[C@H](C(=O)N(CC)[C@@H](Cc1ccc(O)c(C(C)(C)C)c1)C(N)=O)C(C)C [Example 41, N-Et-Phe(4-F)-N-Me-Val-N-Et-Tyr(3-tBu)-NH2]	3.98 nM	
0.7 nM	CN[C@@H](Cc1ccc(F)cc1)C(=O)N(C)[C@H](C(=O)N[C@@H](Cc1ccc(O)c(C(C)(C)C)c1)C(=O)NCO)C(C)C [Example 123, N-Me-Phe(4-F)-N-Me-Val-Tyr(3-tBu)-NHCH2OH]	0.794 nM	
0.31 nM	CCNC(=O)[C@H](Cc1ccc(O)c(C(C)(C)C)c1)NC(=O)[C@H](C(C)C)N(C)C(=O)[C@H](Cc1ccc(F)cc1)NC [Example 102, N-Me-Phe(4-F)-N-Me-Val-Tyr(3-tBu)-NHEt] (H-[NMePhe(4-F)]-[NMeV]-[Tyr(3-tBu)]-NHEt)	1 nM	
0.43 nM	CCNC(=O)[C@H](Cc1ccc(O)c(C(C)(C)C)c1)N(CC)C(=O)[C@H](C(C)C)N(C)C(=O)[C@H](Cc1ccc(F)cc1)NC [Example 108, N-Me-Phe(4-F)-N-Me-Val-N-Et-Tyr(3-tBu)-NHEt]	1 nM	
